Laboratory results reported in patent US20070259879A1, “Piperazine and piperidine biaryl derivatives” (priority 2006, published 2007).

Each compound was assayed on HIV-1 pseudotyped virus (assay: HIV-1 pseudotyped virus assay (luciferase reporter gene, single cycle of infection)). Settings: Human immunodeficiency virus 1, CCR5, 72 h, read-out: Activity (antiviral activity, IC50).
Format: cell-based
From the text: In this example are illustrated experimental procedures for determining biological activity, such as antiviral activity. For determining biological activity, an HIV-1 infection assay was used to determine the antiviral potency for compounds of the present invention.
For determining biological activity, an HIV-1 pseudotyped virus assay was used to determine the respective antiviral potencies of each compound tested in the assay for comparison. The pseudotyped assay scores for a reduction in infection as indicated by decreased signal from the reporter gene encoding a luciferase enzyme (“reporter gene”). The assay employs cell lines expressing CD4 and either of the primary chemokine receptors (CCR5 or CXCR4) that HIV uses as a co-receptor (“target cells”). Pseudotyped virus was prepared by co-transfection of 293T cells with: 1) a plasmid construct carrying the HIV-1 envelope of choice, in combination with 2) a pseudotyped virus backbone construct in which (a) envelope expression has been abrogated due to a frameshift in the envelope sequence, and (b) the reporter gene replaces nef. Expression of HIV-1 envelope on 293T packaging cells results in the production of a pseudotyped virus carrying the reporter gene that is capable of a single cycle of infection.
The compounds of the present invention being tested for antiviral activity were serially diluted and dose responses determined in duplicate in two separate experiments. The compounds to be tested were added directly to the plated, target cells, followed by the addition of pseudotyped virus described above. The cells were cultured for three days prior harvest. Media and compound were removed, the cell monolayer was washed, lysed by detergent, and then frozen at −80 degrees C. for a minimum of 30 minutes. Following thawing and acclimation to room temperature, luciferase production was quatified by injecting 100 […]I of a substrate (of the enzyme encoded by the reporter gene) into each well followed by detecting the signal (light emitted from the interaction between the enzyme and substrate) after 5 seconds. In the pseudotyped assay, a 50% reduction in signal is significant, and provides the primary cutoff value for assessing antiviral activity (“IC50” is defined as the dilution resulting in a 50% reduction in enzymatic activity as interpolated from a titration curve). Representative compounds according to the present invention, and their antiviral activity, are illustrated in Table 3.

Structure (SMILES)	IC50 [µM]
C[C@@H]1CN(C(=O)c2ccccc2)CCN1S(=O)(=O)c1ccc(-c2csnn2)cc1 [Example 134, [(R)-3-methyl-4-(4-[1,2,3]thiadiazol-4-yl-benzenesulfonyl)-piperazin-1-yl]-phenyl-methanone]	> 5
CC1CN(C(=O)c2ccccc2)CCN1S(=O)(=O)c1ccc(-c2ccc3ccccc3n2)s1 (centres unmarked) [Example 135, (3-methyl-4-(5-(quinolin-2-yl)thiophen-2-ylsulfonyl)piperazin-1-yl)(phenyl)methanone]	> 5
Cc1ccc(C#N)c(-c2ccc(S(=O)(=O)N3CCN(C(=O)c4ccccc4)CC3C)s2)n1 (centres unmarked) [Example 136, 2-(5-(4-benzoyl-2-methylpiperazin-1-ylsulfonyl)thiophen-2-yl)-6-methylnicotinonitrile]	> 5
Cc1cccc(-c2ccc(S(=O)(=O)N3CCN(C(=O)c4ccccc4)CC3C)s2)n1 (centres unmarked) [Example 137, (3-methyl-4-(5-(6-methylpyridin-2-yl)thiophen-2-ylsulfonyl)piperazin-1-yl)(phenyl)methanone]	> 5
Cc1ccnc(-c2ccc(S(=O)(=O)N3CCN(C(=O)c4ccccc4)CC3C)s2)c1 (centres unmarked) [Example 138, (3-methyl-4-(5-(4-methylpyridin-2-yl)thiophen-2-ylsulfonyl)piperazin-1-yl)(phenyl)methanone]	> 5
Cc1cccnc1-c1ccc(S(=O)(=O)N2CCN(C(=O)c3ccccc3)CC2C)s1 (centres unmarked) [Example 139, (3-methyl-4-(5-(3-methylpyridin-2-yl)thiophen-2-ylsulfonyl)piperazin-1-yl)(phenyl)methanone]	> 5
CC1CN(C(=O)c2ccccc2)CCN1S(=O)(=O)c1ccc(-c2ncccn2)s1 (centres unmarked) [Example 141, (3-methyl-4-(5-(pyrimidin-2-yl)thiophen-2-ylsulfonyl)piperazin-1-yl)(phenyl)methanone]	< 5
CC1CN(C(=O)c2ccccc2)CCN1S(=O)(=O)c1ccc(-c2cccs2)s1 (centres unmarked) [Example 142, (4-(2,2′-bithiophen-5-ylsulfonyl)-3-methylpiperazin-1-yl)(phenyl)methanone]	< 5
CC1CN(C(=O)c2ccccc2)CCN1S(=O)(=O)c1ccc(-c2ccc(-c3ccon3)s2)s1 (centres unmarked) [Example 143, (4-(5′-(isoxazol-3-yl)-2,2′-bithiophen-5-ylsulfonyl)-3-methylpiperazin-1-yl)(phenyl)methanone]	> 5
CC1CN(C(=O)c2ccccc2)CCN1S(=O)(=O)c1ccc(-c2ccc(-c3ccno3)s2)s1 (centres unmarked) [Example 144, (4-(5′-(isoxazol-5-yl)-2,2′-bithiophen-5-ylsulfonyl)-3-methylpiperazin-1-yl)(phenyl)methanone]	< 5
CC1CN(C(=O)c2ccccc2)CCN1S(=O)(=O)c1ccc(-c2ccccc2)s1 (centres unmarked) [Example 145, (3-methyl-4-(5-phenylthiophen-2-ylsulfonyl)piperazin-1-yl)(phenyl)methanone]	> 5
Cc1ccc(-c2ccc(S(=O)(=O)N3CCN(C(=O)c4ccccc4)CC3C)s2)nn1 (centres unmarked) [Example 146, (3-methyl-4-(5-(6-methylpyridazin-3-yl)thiophen-2-ylsulfonyl)piperazin-1-yl)(phenyl)methanone]	> 5
CC1CN(C(=O)c2ccccc2)CCN1S(=O)(=O)c1ccc(-c2ccc(C#N)cn2)s1 (centres unmarked) [Example 147]	< 5
CC1CN(C(=O)c2ccccc2)CCN1S(=O)(=O)c1ccc(-c2ccncn2)s1 (centres unmarked) [Example 148, (3-methyl-4-(5-(pyrimidin-4-yl)thiophen-2-ylsulfonyl)piperazin-1-yl)(phenyl)methanone]	> 5
CC1CN(C(=O)c2ccccc2)CCN1S(=O)(=O)c1ccc(-c2cccnc2)s1 (centres unmarked) [Example 150, (3-methyl-4-(5-(pyridin-3-yl)thiophen-2-ylsulfonyl)piperazin-1-yl)(phenyl)methanone]	> 5
CC1CN(C(=O)c2ccccc2)CCN1S(=O)(=O)c1ccc(-c2ncnc3ccsc23)s1 (centres unmarked) [Example 151, (3-methyl-4-(5-(thieno[3,2-d]pyrimidin-4-yl)thiophen-2-ylsulfonyl)piperazin-1-yl)(phenyl)methanone]	> 5
CC1CN(C(=O)c2ccccc2)CCN1S(=O)(=O)c1ccc(-c2cc(-n3ccnc3)ncn2)s1 (centres unmarked) [Example 152, (4-(5-(6-(1H-imidazol-1-yl)pyrimidin-4-yl)thiophen-2-ylsulfonyl)-3-methylpiperazin-1-yl)(phenyl)methanone]	> 5
CC1CN(C(=O)c2ccccc2)CCN1S(=O)(=O)c1ccc(-c2ccncc2)s1 (centres unmarked) [Example 153, (3-methyl-4-(5-(pyridin-4-yl)thiophen-2-ylsulfonyl)piperazin-1-yl)(phenyl)methanone]	> 5

Structure (SMILES)	IC50 [µM]
CC1CN(C(=O)c2ccccc2)CCN1S(=O)(=O)c1ccc(-c2nncc3ccccc23)s1 (centres unmarked) [Example 154, (3-methyl-4-(5-(phthalazin-1-yl)thiophen-2-ylsulfonyl)piperazin-1-yl)(phenyl)methanone]	> 5
CC(=O)c1cccc(-c2ccc(S(=O)(=O)N3CCN(C(=O)c4ccccc4)CC3C)s2)n1 (centres unmarked) [Example 155, 1-(6-(5-(4-benzoyl-2-methylpiperazin-1-ylsulfonyl)thiophen-2-yl)pyridin-2-yl)ethanone]	> 5
CC1CN(C(=O)c2ccccc2)CCN1S(=O)(=O)c1ccc(-c2ccc(-c3ccccc3)nn2)s1 (centres unmarked) [Example 156, (3-methyl-4-(5-(6-phenylpyridazin-3-yl)thiophen-2-ylsulfonyl)piperazin-1-yl)(phenyl)methanone]	> 5
CC1CN(C(=O)c2ccccc2)CCN1S(=O)(=O)c1ccc(-c2ncccc2C(F)(F)F)s1 (centres unmarked) [Example 157, (3-methyl-4-(5-(3-(trifluoro-methyl)pyridin-2-yl)thiophen-2-ylsulfonyl)piperazin-1-yl)(phenyl)methanone]	> 5
Cc1nc2cc(-c3ccc(S(=O)(=O)N4CCN(C(=O)c5ccccc5)CC4C)s3)ccc2s1 (centres unmarked) [Example 158, (3-methyl-4-(5-(2-methylbenzo[d]thiazol-5-yl)thiophen-2-ylsulfonyl)piperazin-1-yl)(phenyl)methanone]	> 5
C[C@@H]1CN(C(=O)c2ccccc2)CCN1S(=O)(=O)c1ccc(-c2csnn2)s1 [Example 165, [(R)-3-Methyl-4-(5-[1,2,3]thiadiazol-4-yl-thiophene-2-sulfonyl)-piperazin-1-yl]-phenyl-methanone]	> 5
CC1CN(C(=O)c2ccccc2)CCN1S(=O)(=O)c1ccc(-c2cnco2)cc1 (centres unmarked) [Example 166, [3-Methyl-4-(4-oxazol-5-yl-benzenesulfonyl)-piperazin-1-yl]-phenyl methanone]	> 5
C[C@@H]1CN(C(=O)c2ccccc2)CCN1S(=O)(=O)c1ccc(-c2cc(C(F)(F)F)on2)s1 [Example 167, [(R)-3-Methyl-4-(5-[(5-trifluoromethyl)-isoxazol-3-yl]-thiophene-2-sulfonyl)-piperazin-1-yl]-phenyl-methanone]	> 5
C[C@@H]1CN(C(=O)c2ccccc2)CCN1S(=O)(=O)c1ccc(-c2ccccn2)s1 [Example 168, [(R)-3-Methyl-4-(5-pyridinyl-2-yl-thiophene-2-sulfonyl)-piperazin-1-yl]-phenyl-methanone]	> 5
CC1CN(C(=O)c2ccccc2)CCN1C(=O)C(=O)c1ccc(-c2ccn[nH]2)cc1 (centres unmarked) [Example 169, 1-(4-Benzoyl-2-methyl-piperazin-1-yl)-2-[4-(2H-pyrazol-3-yl)-phenyl]-ethane-1,2-dione]	< 5
CC1CN(C(=O)c2ccccc2)CCN1C(=O)C(=O)c1ccc(-n2cncn2)cc1 (centres unmarked) [Example 170, 1-(4-Benzoyl-2-methyl-piperazin-1-yl)-2-(4-[1,2,4]triazol-1-yl-phenyl)-ethane-1,2-dione]	< 5
CC1CN(C(=O)c2ccccc2)CCN1C(=O)C(=O)c1ccc(-c2ccco2)cc1 (centres unmarked) [Example 171, 1-(4-Benzoyl-2-methyl-piperazin-1-yl)-2-(4-furan-2-yl-phenyl)-ethane-1,2-dione]	< 5
CC1CN(C(=O)c2ccccc2)CCN1C(=O)C(=O)c1ccc(-c2ccn(C)n2)cc1 (centres unmarked) [Example 172, 1-(4-Benzoyl-2-methyl-piperazin-1-yl)-2-[4-(1-methyl-1H-pyrazol-3-yl)-phenyl]-ethane-1,2-dione]	< 5
Cc1ccc(-c2ccc(C(=O)C(=O)N3CCN(C(=O)c4ccccc4)CC3C)cc2)o1 (centres unmarked) [Example 173, 1-(4-Benzoyl-2-methyl-piperazin-1-yl)-2-[4-(5-methyl-furan-2-yl)-phenyl]-ethane-1,2-dione]	< 5
CC1CN(C(=O)c2ccccc2)CCN1C(=O)C(=O)c1ccc(-n2nccn2)cc1 (centres unmarked) [Example 174, 1-(4-Benzoyl-2-methyl-piperazin-1-yl)-2-(4-[1,2,3]triazol-2-yl-phenyl)-ethane-1,2-dione]	< 5
COc1cc(C(=O)C(=O)N2CCN(C(=O)c3ccccc3)C[C@H]2C)ccc1-c1cnco1 [Example 175]	< 5
C[C@@H]1CN(C(=O)c2ccccc2)CCN1C(=O)C(=O)c1ccc(-c2cncs2)cc1 [Example 176]	< 5
